One test deals with B-Raf (Homo sapiens, UniProt P15056). Briefly: B-Raf Accelerated MEK ATPase assay (BRAMA). Format: biochemical. To be noted: BRAMA enzyme assay, class by pIC50; for IC50: read-out: B-Raf Activity. The method, then: Compounds of the present invention were tested for B-Raf […] inhibitory activity in a B-Raf Accelerated MEK ATPase assay (BRAMA). The BRAMA assay is a high sensitivity assay which measures an intrinsic MEK-mediated ATP hydrolysis uncoupled from downstream ERK phosphorylation by coupling the formation of ADP to NADH oxidation through the enzymes pyruvate kinase and lactate dehydrogenase. When ADP production is initiated by addition of catalytic amounts of an activated RAF enzyme and non-phosphorylated MEK, one observes robust ADP production concomitant with RAF-mediated phosphorylation of MEK. Specific details of the assay are disclosed in: C. Rominger, M. Schaber, E. May. Assay for B-Raf Activity Based on Intrinsic MEK ATPase Activity.

Another test concerns SK-MEL-28 tumor cells. In words: Cell growth inhibition assay (CellTiter-Glo), SK-MEL-28.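 Also: luminescent total ATP as a proxy for cell number, threefold serial dilutions at 0.2% DMSO, percent growth inhibition versus DMSO vehicle control wells.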 To be noted: Homo sapiens, SK-MEL-28, 72 h, read-out: Activity in SK-MEL-28 Tumor Cells.
A further test concerns A375P tumor cells. Briefly: Cell growth inhibition assay (CellTiter-Glo), A375P.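 Also: total ATP luminescence used as proxy for cell number, serial threefold compound dilutions at 0.2% DMSO, growth inhibition expressed versus DMSO vehicle-treated wells.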 To be noted: Homo sapiens, 72 h, read-out: Activity in A375P Tumor Cells.
For another test, the system named is SK-MEL-3 tumor cells. Briefly: Cell growth inhibition assay (CellTiter-Glo), SK-MEL-3.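 Also: human melanoma cells grown with compound for 3 days in 0.2% DMSO, total ATP read by luminescence as proxy for cell number, growth inhibition versus DMSO-treated wells.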 The note with it: Homo sapiens, SK-MEL3, 72 h, read-out: Activity in SK-MEL-3 Tumor Cells.
In a further test the test system is Colo205 tumor cells. In words: Cell growth inhibition assay (CellTiter-Glo), Colo205.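 Also: growth measured via total ATP luminescence (CellTiter-Glo) as a proxy for cell number, inhibition expressed against DMSO-treated control wells, 3-day exposure at 0.2% final DMSO.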 To be noted: Homo sapiens, COLO 205, 72 h, read-out: Activity in Colo205 Tumor Cells.
Another test deals with HT-29 tumor cells. Briefly: Cell growth inhibition assay (CellTiter-Glo), HT-29.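 Also: ATP content read by luminescence as proxy for cell number, growth inhibition versus DMSO vehicle wells, 0.2% DMSO final, nine serial threefold compound dilutions.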 The note with it: Homo sapiens, HT-29, 72 h, read-out: Activity in HT-29 Tumor Cells.

Structures can show the parent of a compound that is named as a salt.

Sequence of B-Raf (P15056 whole entry): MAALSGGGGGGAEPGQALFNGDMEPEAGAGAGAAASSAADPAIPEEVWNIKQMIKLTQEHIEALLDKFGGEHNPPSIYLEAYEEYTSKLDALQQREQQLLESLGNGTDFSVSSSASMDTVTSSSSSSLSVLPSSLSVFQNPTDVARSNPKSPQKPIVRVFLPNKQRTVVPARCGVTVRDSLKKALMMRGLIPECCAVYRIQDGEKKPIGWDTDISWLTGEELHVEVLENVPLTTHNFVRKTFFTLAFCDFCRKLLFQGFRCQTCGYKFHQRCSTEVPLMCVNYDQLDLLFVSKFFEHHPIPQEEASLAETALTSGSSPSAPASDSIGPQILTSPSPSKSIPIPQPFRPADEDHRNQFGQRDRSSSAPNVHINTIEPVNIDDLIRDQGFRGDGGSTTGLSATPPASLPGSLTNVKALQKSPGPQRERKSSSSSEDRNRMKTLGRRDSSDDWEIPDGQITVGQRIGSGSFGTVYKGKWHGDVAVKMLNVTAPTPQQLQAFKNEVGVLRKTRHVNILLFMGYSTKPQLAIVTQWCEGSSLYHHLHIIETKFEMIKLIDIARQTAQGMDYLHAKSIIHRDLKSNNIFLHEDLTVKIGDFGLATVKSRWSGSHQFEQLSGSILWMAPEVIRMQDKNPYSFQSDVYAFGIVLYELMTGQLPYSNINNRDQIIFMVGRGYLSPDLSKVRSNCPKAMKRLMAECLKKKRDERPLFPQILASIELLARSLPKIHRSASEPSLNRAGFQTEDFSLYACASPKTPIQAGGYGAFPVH

As to `CCNc1nc(-c2cc(OC)cc(OC)c2)c(-c2ccnc(Nc3ccc(OC4CCN(CCS(C)(=O)=O)CC4)c(OC)c3)n2)o1` [Example 95], the IC50 at B-Raf was less than 100 nM; in the test with SK-MEL-28 tumor cells it was 500 to 5000 nM; in the test on A375P tumor cells, 500 to 5000 nM; with SK-MEL-3 tumor cells, 500 to 5000 nM; in the test on Colo205 tumor cells, 500 to 5000 nM; with HT-29 tumor cells, 500 to 5000 nM.

Take `CCNc1nc(-c2cc(C)cc(OC)c2)c(-c2ccnc(Nc3ccc(N4CCN(CCS(C)(=O)=O)CC4)c(F)c3)n2)o1` [Example 127]: the IC50 at B-Raf was less than 100 nM; with SK-MEL-28 tumor cells it was less than 500 nM; in the test with A375P tumor cells, 500 to 5000 nM; with SK-MEL-3 tumor cells it was less than 500 nM; with Colo205 tumor cells, less than 500 nM; in the test on HT-29 tumor cells, less than 500 nM.

On to `COc1cc(OC)cc(-c2nc(NCCF)sc2-c2ccnc(Nc3ccc(OCCN4CCCC4)c(Cl)c3)n2)c1` [Example 21, 4-{4-[3,5-Bis(methyloxy)phenyl]-2-[(2-fluoroethyl)amino]-1,3-thiazol-5-yl}-N-(3-chloro-4-{[2-(1-pyrrolidinyl)ethyl]oxy}phenyl)-2-pyrimidinamine], for which the IC50 was less than 100 nM at B-Raf; 500 to 5000 nM with SK-MEL-28 tumor cells; less than 500 nM in the test on A375P tumor cells; less than 500 nM with SK-MEL-3 tumor cells; 500 to 5000 nM with Colo205 tumor cells; less than 500 nM in the test with HT-29 tumor cells.

With `CCNc1nc(-c2cc(OC)cc(OC)c2)c(-c2ccnc(Nc3ccc(N4CCN(CCS(C)(=O)=O)CC4)c(F)c3)n2)s1` [Example 6, 4-[4-[3,5-Bis(methyloxy)phenyl]-2-(ethylamino)-1,3-thiazol-5-yl]-N-(3-fluoro-4-{4-[2-(methylsulfonyl)ethyl]-1-piperazinyl}phenyl)-2-pyrimidinamine trifluoroacetate], the IC50 at B-Raf is less than 100 nM; with SK-MEL-28 tumor cells, 500 to 5000 nM; with A375P tumor cells, less than 500 nM; in the test on SK-MEL-3 tumor cells, less than 500 nM; in the test with Colo205 tumor cells, less than 500 nM; in the test with HT-29 tumor cells, less than 500 nM.

Regarding `CCNc1nc(-c2ccc(Cl)c(OC)c2)c(-c2ccnc(Nc3ccc(OCCN4CCCC4)c(Cl)c3)n2)s1` [Example 49, 4-[4-[4-Chloro-3-(methyloxy)phenyl]-2-(ethylamino)-1,3-thiazol-5-yl]-N-(3-chloro-4-{[2-(1-pyrrolidinyl)ethyl]oxy}phenyl)-2-pyrimidinamine], the IC50 on B-Raf is less than 100 nM; in the test with SK-MEL-28 tumor cells, 500 to 5000 nM; in the test on A375P tumor cells, less than 500 nM; in the test on SK-MEL-3 tumor cells, less than 500 nM; in the test on Colo205 tumor cells, 500 to 5000 nM; in the test on HT-29 tumor cells it was less than 500 nM.

As to `CCNc1nc(-c2cc(C)cc(OC)c2)c(-c2ccnc(Nc3ccc(OC4CCN(CCS(C)(=O)=O)CC4)c(C)c3)n2)o1` [Example 125], the IC50 on B-Raf was less than 100 nM; in the test on SK-MEL-28 tumor cells it was 500 to 5000 nM; with A375P tumor cells it was 500 to 5000 nM; with SK-MEL-3 tumor cells, 500 to 5000 nM; in the test with Colo205 tumor cells, 500 to 5000 nM; in the test on HT-29 tumor cells, 500 to 5000 nM.

For `COc1cccc(-c2nc(CO)sc2-c2ccnc(Nc3ccc(OCCN4CCCC4)c(F)c3)n2)c1` [Example 60, {5-{2-[(3-Fluoro-4-{[2-(1-pyrrolidinyl)ethyl]oxy}phenyl)amino]-4-pyrimidinyl}-4-[3-(methyloxy)phenyl]-1,3-thiazol-2-yl}methanol], the IC50 on B-Raf is less than 100 nM; in the test on SK-MEL-28 tumor cells it was 500 to 5000 nM; in the test with A375P tumor cells, 500 to 5000 nM; in the test with SK-MEL-3 tumor cells, less than 500 nM; with Colo205 tumor cells it was less than 500 nM; in the test with HT-29 tumor cells it was less than 500 nM.

Take `CCNc1nc(-c2cc(OC)cc(OC)c2)c(-c2ccnc(Nc3ccc(N4CCN(CCS(C)(=O)=O)CC4)nc3)n2)s1` [Example 1, 4-[4-[3,5-Bis(methyloxy)phenyl]-2-(ethylamino)-1,3-thiazol-5-yl]-N-(6-{4-[2-(methylsulfonyl)ethyl]-1-piperazinyl}-3-pyridinyl)-2-pyrimidinamine]: the IC50 at B-Raf was less than 100 nM; with SK-MEL-28 tumor cells, 500 to 5000 nM; with A375P tumor cells, less than 500 nM; with SK-MEL-3 tumor cells, less than 500 nM; in the test on Colo205 tumor cells, less than 500 nM; with HT-29 tumor cells, less than 500 nM.

Regarding `CCNc1nc(-c2cc(OC)cc(OC)c2)c(-c2ccnc(Nc3ccc(N4CCN(CCS(C)(=O)=O)CC4)c(F)c3)n2)o1` [Example 116], the IC50 on B-Raf was less than 100 nM; in the test with SK-MEL-28 tumor cells, 500 to 5000 nM; with A375P tumor cells it was 500 to 5000 nM; in the test on SK-MEL-3 tumor cells, less than 500 nM; in the test on Colo205 tumor cells it was less than 500 nM; in the test on HT-29 tumor cells, 500 to 5000 nM.

In the case of `CCNc1nc(-c2cc(OC)cc(OC)c2)c(-c2ccnc(Nc3ccc(OCCN4CCOCC4)c(F)c3)n2)s1` [Example 13, 4-[4-[3,5-Bis(methyloxy)phenyl]-2-(ethylamino)-1,3-thiazol-5-yl]-N-(3-fluoro-4-{[2-(4-morpholinyl)ethyl]oxy}phenyl)-2-pyrimidinamine], the IC50 on B-Raf is less than 100 nM; with SK-MEL-28 tumor cells it was 500 to 5000 nM; in the test with A375P tumor cells it was 500 to 5000 nM; in the test on SK-MEL-3 tumor cells it was less than 500 nM; with Colo205 tumor cells it was 500 to 5000 nM; in the test with HT-29 tumor cells, less than 500 nM.

As to `CCNc1nc(-c2cc(OC)cc(OC)c2)c(-c2ccnc(Nc3cc(F)c(N4CCN(CCF)CC4)c(F)c3)n2)o1` [Example 94], the IC50 at B-Raf is less than 100 nM; with SK-MEL-28 tumor cells, 500 to 5000 nM; with A375P tumor cells, 500 to 5000 nM; in the test on SK-MEL-3 tumor cells, less than 500 nM; in the test on Colo205 tumor cells it was less than 500 nM; in the test on HT-29 tumor cells it was less than 500 nM.

In the case of `CCNc1nc(-c2cc(C)cc(OC)c2)c(-c2ccnc(Nc3ccc(OC4CCN(CCS(C)(=O)=O)CC4)c(F)c3)n2)s1` [Example 32, 4-{2-(Ethylamino)-4-[3-methyl-5-(methyloxy)phenyl]-1,3-thiazol-5-yl}-N-[3-fluoro-4-({1-[2-(methylsulfonyl)ethyl]-4-piperidinyl}oxy)phenyl]-2-pyrimidinamine], the IC50 on B-Raf was less than 100 nM; in the test on SK-MEL-28 tumor cells, less than 500 nM; with A375P tumor cells it was less than 500 nM; with SK-MEL-3 tumor cells, less than 500 nM; in the test on Colo205 tumor cells it was less than 500 nM; with HT-29 tumor cells, less than 500 nM.

Turning to `COc1cc(OC)cc(-c2nc(NC3CC3)sc2-c2ccnc(Nc3ccc(OCCN4CCCC4=O)c(F)c3)n2)c1` [Example 16, 1-(2-{[4-({4-[4-[3,5-Bis(methyloxy)phenyl]-2-(cyclopropylamino)-1,3-thiazol-5-yl]-2-pyrimidinyl}amino)-2-fluorophenyl]oxy}ethyl)-2-pyrrolidinone trifluoroacetate], the IC50 on B-Raf is less than 100 nM; in the test with SK-MEL-28 tumor cells it was 500 to 5000 nM; in the test with A375P tumor cells it was 500 to 5000 nM; in the test on SK-MEL-3 tumor cells it was less than 500 nM; with Colo205 tumor cells it was 500 to 5000 nM; with HT-29 tumor cells, less than 500 nM.

With `CCc1nc(-c2cccc(CO)c2)c(-c2ccnc(Nc3ccc(N4CCOCC4)c(F)c3)n2)s1` [Example 67, {3-[2-Ethyl-5-(2-{[3-fluoro-4-(4-morpholinyl)phenyl]amino}-4-pyrimidinyl)-1,3-thiazol-4-yl]phenyl}methanol], the IC50 on B-Raf is less than 100 nM; in the test with SK-MEL-28 tumor cells it was 500 to 5000 nM; in the test with A375P tumor cells, less than 500 nM; with SK-MEL-3 tumor cells, less than 500 nM; in the test with Colo205 tumor cells it was 500 to 5000 nM; in the test with HT-29 tumor cells, less than 500 nM.

As for `CCNc1nc(-c2cc(OC)cc(OC)c2)c(-c2ccnc(Nc3ccc(N4CCN(C)CC4)c(Cl)c3)n2)o1` [Example 69, 4-[4-[3,5-Bis(methyloxy)phenyl]-2-(ethylamino)-1,3-oxazol-5-yl]-N-[3-chloro-4-(4-methyl-1-piperazinyl)phenyl]-2-pyrimidinamine], the IC50 is less than 100 nM at B-Raf, 500 to 5000 nM in the test with SK-MEL-28 tumor cells and less than 500 nM in the test on Colo205 tumor cells.

For `CCNc1nc(-c2cc(C)cc(OC)c2)c(-c2ccnc(Nc3ccc(N4CCOCC4)c(F)c3)n2)o1.O=C(O)C(F)(F)F` [Example 129], the “B-Raf Activity” value on B-Raf is “+++ (at least one pIC50 measurement of greater than 7 against B-Raf)”. In addition, the IC50 with A375P tumor cells, with SK-MEL-3 tumor cells and in the test with HT-29 tumor cells was 500 to 5000 nM in each case.

`CCNc1nc(-c2ccnc(OC)c2)c(-c2ccnc(Nc3ccc(OCCN4CCCC4)c(Cl)c3)n2)s1` [Example 58, N-(3-Chloro-4-{[2-(1-pyrrolidinyl)ethyl]oxy}phenyl)-4-{2-(ethylamino)-4-[2-(methyloxy)-4-pyridinyl]-1,3-thiazol-5-yl}-2-pyrimidinamine]: the IC50 at B-Raf was less than 100 nM; in the test with SK-MEL-28 tumor cells, less than 500 nM; in the test with Colo205 tumor cells it was less than 500 nM.

In the case of `CCNc1nc(-c2cc(OC)cc(OC)c2)c(-c2ccnc(Nc3cc(F)c(OC4CCN(CCF)CC4)c(F)c3)n2)o1` [Example 93], the IC50 at B-Raf is less than 100 nM; with SK-MEL-28 tumor cells it was 500 to 5000 nM; with Colo205 tumor cells, 500 to 5000 nM.

`CCNc1nc(-c2cccc(OC)c2F)c(-c2ccnc(Nc3ccc(OC4CCN(CCS(C)(=O)=O)CC4)c(F)c3)n2)s1` [Example 48, 4-{2-(Ethylamino)-4-[2-fluoro-3-(methyloxy)phenyl]-1,3-thiazol-5-yl}-N-[3-fluoro-4-({1-[2-(methylsulfonyl)ethyl]-4-piperidinyl}oxy)phenyl]-2-pyrimidinamine]: the IC50 on B-Raf was less than 100 nM; with SK-MEL-28 tumor cells it was less than 500 nM; with Colo205 tumor cells, less than 500 nM.

Values taken from patent publication US20110190280A1, “Thiazole And Oxazole Kinase Inhibitors” (priority 2007, published 2011).
